Consider 30 molecules from US20230416225A1, “DIAMINOPYRIMIDINE CARBOXAMIDE INHIBITORS OF HPK1” (MERCK SHARP & DOHME LLC, priority 2020, published 2023).

The target in the assay is T1, Human HPK1, catalytic domain (Homo sapiens, UniProt Q92918).
T1 construct: purchased Carna
T1 sequence (Q92918 1-346): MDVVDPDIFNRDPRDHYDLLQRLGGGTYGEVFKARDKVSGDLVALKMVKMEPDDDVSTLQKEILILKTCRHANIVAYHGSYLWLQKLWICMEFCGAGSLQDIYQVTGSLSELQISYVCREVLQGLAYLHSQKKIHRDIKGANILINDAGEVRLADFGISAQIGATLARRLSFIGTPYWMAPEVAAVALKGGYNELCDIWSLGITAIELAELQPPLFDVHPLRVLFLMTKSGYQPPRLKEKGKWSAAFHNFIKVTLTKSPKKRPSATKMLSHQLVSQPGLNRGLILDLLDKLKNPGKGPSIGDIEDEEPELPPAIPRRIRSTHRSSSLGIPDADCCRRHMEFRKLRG
Nature of the assay: HPK1-SLP76 TR-FRET assay. Format: biochemical. To be noted: 75 pM HPK1, 10 uM ATP, 10 nM SLP76, 30 min compound pre-incubation. (In general: In TR-FRET formats the signal depends on donor and acceptor labels being close together.)

The term IC50 denotes the concentration that gives 50% inhibition. Read a low IC50 as higher potency. `NC(=O)c1cnc(Nc2cccc3c2CCC3)nc1Nc1cccc2c1CCNC2=O` [Example 25-34, 2-[(2,3-dihydro-1H-inden-4-yl)amino]-4-[(1-oxo-1,2,3,4-tetrahydroisoquinolin-5-yl)amino]pyrimidine-5-carboxamide] returned an IC50 of 24.6 nM.
For the molecule `COc1cc2c(cc1Nc1ncc(C(N)=O)c(Nc3ccccc3Br)n1)CN(C1CC(C#N)C1)CC2` (stereo not drawn) [Example 9-6, 4-((2-bromophenyl)amino)-2-((2-(3-cyanocyclobutyl)-6-methoxy-1,2,3,4-tetrahydroisoquinolin-7-yl)amino)pyrimidine-5-carboxamide], the IC50 was 4.57 nM.
The molecule `COc1cc2c(cc1Nc1ncc(C(N)=O)c(Nc3ccccc3Br)n1)CN(C1CC(OC)C1)CC2` (stereo not drawn) [Example 9-9, 4-[(2-bromophenyl)amino]-2-{[6-methoxy-2-(3-methoxycyclobutyl)-1,2,3,4-tetrahydroisoquinolin-7-yl]amino}pyrimidine-5-carboxamide] had an IC50 of 3.27 nM.
With `COc1cc2c(cc1Nc1ncc(C(N)=O)c(Nc3c(C)cc(C#N)cc3F)n1)CN(C)CC2` [Example 4-33, 4-[(4-cyano-2-fluoro-6-methylphenyl)amino]-2-[(6-methoxy-2-methyl-1,2,3,4-tetrahydroisoquinolin-7-yl)amino]pyrimidine-5-carboxamide] the figure was 0.44 nM; with `COc1ccc(Cl)cc1Nc1ncc(C(N)=O)c(Nc2cccc3c2CCNC3=O)n1` [Example 25-33, 2-[(5-chloro-2-methoxyphenyl)amino]-4-[(1-oxo-1,2,3,4-tetrahydroisoquinolin-5-yl)amino]pyrimidine-5-carboxamide], 187 nM.
The value for `COc1cc2c(cc1Nc1ncc(C(N)=O)c(Nc3cccc(Cl)c3F)n1)CN(C)CC2` [Example 4-12, 4-[(3-chloro-2-fluorophenyl)amino]-2-[(6-methoxy-2-methyl-1,2,3,4-tetrahydroisoquinolin-7-yl)amino]pyrimidine-5-carboxamide] was 0.65 nM.
The value for `COc1cc2c(cc1Nc1ncc(C(N)=O)c(NC3CCC(C(F)(F)F)CC3)n1)CN(C)CC2` (stereo not drawn) [Example 26-16, 2-[(6-methoxy-2-methyl-1,2,3,4-tetrahydroisoquinolin-7-yl)amino]-4-{[4-(trifluoromethyl)cyclohexyl]amino}pyrimidine-5-carboxamide] was 11.9 nM; that for `COc1cc2c(cc1Nc1ncc(C(N)=O)c(N[C@@H]3COC[C@H]3SC)n1)CN(C)CC2` [Example 26-8, 2-[(6-methoxy-2-methyl-1,2,3,4-tetrahydroisoquinolin-7-yl)amino]-4-{[(3R,4S)-4-(methylsulfanyl)oxolan-3-yl]amino}pyrimidine-5-carboxamide] was 0.95 nM.
In turn, `COc1ccc(S(C)(=O)=O)cc1Nc1ncc(C(N)=O)c(Nc2cccc3c2CCN(C)C3)n1` [Example 7-61, 2-{[2-methoxy-5-(methylsulfonyl)phenyl]amino}-4-[(2-methyl-1,2,3,4-tetrahydroisoquinolin-5-yl)amino]pyrimidine-5-carboxamide] gave a concentration for half-maximal inhibition (IC50) of 108 nM.
The value for `COc1cc2c(cc1Nc1ncc(C(N)=O)c(NCC3CCNCC3)n1)CN(C)CC2` [Example 26-72, 2-[(6-methoxy-2-methyl-1,2,3,4-tetrahydroisoquinolin-7-yl)amino]-4-{[(piperidin-4-yl)methyl]amino}pyrimidine-5-carboxamide] was 1.23 nM; that for `COc1cc2c(cc1Nc1ncc(C(N)=O)c(Nc3cccc4c3CCNC4)n1)CN(C)CC2` [Example 7-4, 2-[(6-methoxy-2-methyl-1,2,3,4-tetrahydroisoquinolin-7-yl)amino]-4-[(1,2,3,4-tetrahydroisoquinolin-5-yl)amino]pyrimidine-5-carboxamide] was 0.07 nM.
With `NC(=O)c1cnc(Nc2cc3n(n2)CCC3)nc1Nc1cccc2c1CCNC2=O` [Example 7-58, 2-[(5,6-dihydro-4H-pyrrolo[1,2-b]pyrazol-2-yl)amino]-4-[(1-oxo-1,2,3,4-tetrahydroisoquinolin-5-yl)amino]pyrimidine-5-carboxamide] the figure was 3.65 nM; with `COc1cc(N2CCC(N3CCOCC3)CC2)ccc1Nc1ncc(C(N)=O)c(Nc2ccccc2Br)n1` [Example 7-116, 4-[(2-bromophenyl)amino]-2-({2-methoxy-4-[4-(morpholin-4-yl)piperidin-1-yl]phenyl}amino)pyrimidine-5-carboxamide], 283 nM; with `COc1cc2c(cc1Nc1ncc(C(N)=O)c(Nc3c(F)cccc3C#N)n1)CN(C)CC2` [Example 4-9], 5.65 nM.
For the molecule `COc1cc2c(cc1Nc1ncc(C(N)=O)c(N[C@@H]3CCCC[C@@H]3C)n1)CN(C)CC2` [Example 26-41, 2-[(6-methoxy-2-methyl-1,2,3,4-tetrahydroisoquinolin-7-yl)amino]-4-{[(1R,2S)-2-methylcyclohexyl]amino}pyrimidine-5-carboxamide], the midpoint of inhibition, the IC50, lay at 0.14 nM.
With `CC(C)(c1ccc(Nc2ncc(C(N)=O)c(Nc3cccc4c3CCNC4=O)n2)cc1)S(C)(=O)=O` [Example 7-60, 2-({4-[2-(methylsulfonyl)propan-2-yl]phenyl}amino)-4-[(1-oxo-1,2,3,4-tetrahydroisoquinolin-5-yl)amino]pyrimidine-5-carboxamide] the figure was 0.51 nM; with `COc1cc2c(cc1Nc1ncc(C(N)=O)c(Nc3ccccc3C#N)n1)CN(C)CC2` [Example 7-49, 4-[(2-cyanophenyl)amino]-2-[(6-methoxy-2-methyl-1,2,3,4-tetrahydroisoquinolin-7-yl)amino]pyrimidine-5-carboxamide], 0.34 nM.
With `COc1cc2c(cc1Nc1ncc(C(N)=O)c(Nc3c(F)cccc3F)n1)CNCC2` [Example 9-11, 4-(2,6-difluoroanilino)-2-[(6-methoxy-1,2,3,4-tetrahydroisoquinolin-7-yl)amino]pyrimidine-5-carboxamide] the figure was 0.79 nM.
With `COc1cc2c(cc1Nc1ncc(C(N)=O)c(Nc3cccc(C)c3)n1)CN(C)CC2` [Example 7-22, 2-[(6-methoxy-2-methyl-1,2,3,4-tetrahydroisoquinolin-7-yl)amino]-4-[(3-methylphenyl)amino]pyrimidine-5-carboxamide] the figure was 0.81 nM.
In turn, `NC(=O)c1cnc(Nc2ccc(C(F)(F)F)cc2)nc1Nc1cccc2c1CCNC2=O` [Example 25-7, 4-[(1-oxo-1,2,3,4-tetrahydroisoquinolin-5-yl)amino]-2-{[4-(trifluoromethyl)phenyl]amino}pyrimidine-5-carboxamide] registered an IC50 of 474 nM.
The value for `Cc1cc(Nc2ncc(C(N)=O)c(Nc3cccc4c3CCNC4=O)n2)ccc1C1CC1` [Example 25-12, 2-[(4-cyclopropyl-3-methylphenyl)amino]-4-[(1-oxo-1,2,3,4-tetrahydroisoquinolin-5-yl)amino]pyrimidine-5-carboxamide] was 0.57 nM; that for `COc1cc2c(cc1Nc1ncc(C(N)=O)c(Nc3cc(C)ccc3Cl)n1)CN(C)CC2` [Example 4-18, 4-[(2-chloro-5-methylphenyl)amino]-2-[(6-methoxy-2-methyl-1,2,3,4-tetrahydroisoquinolin-7-yl)amino]pyrimidine-5-carboxamide] was 0.48 nM; that for `NC(=O)c1cnc(Nc2cnn(CC(F)(F)F)c2)nc1Nc1cccc2c1CCNC2=O` [Example 7-45, 4-[(1-oxo-1,2,3,4-tetrahydroisoquinolin-5-yl)amino]-2-{[1-(2,2,2-trifluoroethyl)-1H-pyrazol-4-yl]amino}pyrimidine-5-carboxamide] was 19.5 nM.
In turn, `COc1cc2c(cc1Nc1ncc(C(N)=O)c(Nc3ccccc3OC(F)F)n1)CN(C)CC2` [Example 7-114, 4-{[2-(difluoromethoxy)phenyl]amino}-2-[(6-methoxy-2-methyl-1,2,3,4-tetrahydroisoquinolin-7-yl)amino]pyrimidine-5-carboxamide] yielded an IC50 of 0.09 nM. This IC50 is about 220-fold lower than that of the molecule before.
The value for `NC(=O)c1cnc(Nc2cnn3c2CCCC3)nc1Nc1cccc2c1CCNC2=O` [Example 7-53, 4-[(1-oxo-1,2,3,4-tetrahydroisoquinolin-5-yl)amino]-2-[(4,5,6,7-tetrahydropyrazolo[1,5-a]pyridin-3-yl)amino]pyrimidine-5-carboxamide] was 3.94 nM.
With `COc1cc2c(cc1Nc1ncc(C(N)=O)c(Nc3ccccc3Cc3ccccc3)n1)CN(C)CC2` [Example 13-3, 4-[(2-benzylphenyl)amino]-2-[(6-methoxy-2-methyl-1,2,3,4-tetrahydroisoquinolin-7-yl)amino]pyrimidine-5-carboxamide] the figure was 30.6 nM; with `COc1cc2c(cc1Nc1ncc(C(N)=O)c(Nc3ccc(F)cc3)n1)CN(C)CC2` [Example 7-21, 4-[(4-fluorophenyl)amino]-2-[(6-methoxy-2-methyl-1,2,3,4-tetrahydroisoquinolin-7-yl)amino]pyrimidine-5-carboxamide], 0.51 nM; with `Cc1cccc(Nc2ncc(C(N)=O)c(Nc3cccc4c3CCNC4=O)n2)c1C` [Example 25-11, 2-[(2,3-dimethylphenyl)amino]-4-[(1-oxo-1,2,3,4-tetrahydroisoquinolin-5-yl)amino]pyrimidine-5-carboxamide], 71 nM.
The value for `NC(=O)c1cnc(Nc2cccc(C(F)(F)F)c2)nc1Nc1cccc2c1CCNC2=O` [Example 25-18, 4-[(1-oxo-1,2,3,4-tetrahydroisoquinolin-5-yl)amino]-2-{[3-(trifluoromethyl)phenyl]amino}pyrimidine-5-carboxamide] was 20.1 nM; that for `COc1cc2c(cc1Nc1ncc(C(N)=O)c(Nc3ccccc3CC3(F)COC3)n1)CN(C)CC2` [Example 13-4, 4-({2-[(3-fluorooxetan-3-yl)methyl]phenyl}amino)-2-[(6-methoxy-2-methyl-1,2,3,4-tetrahydroisoquinolin-7-yl)amino]pyrimidine-5-carboxamide] was 0.66 nM.
